Assays:
[1] = tested on: murine donor hearts; experiment: Murine ex-vivo heart perfusion after cold preservation; set-up: species or system mouse
Experimental: Male and female WT or Irg1^−/− mice (Jackson laboratories, Bar Harbor, ME) were anesthetized intraperitoneally with 80 mg/kg ketamine and 5 mg/kg xylazine, anticoagulated with heparin (2,000 U/kg iv), and the heart was rapidly exposed through a sternal incision. The aorta was cannulated and retrograde perfused in-situ with HTK solution±HDAC inhibitors. After cannulation, the heart dissected free, the left atrium was opened. For 4-OI (Cayman Chemical, 25374) experiments, donor mice were treated 4-OI (dissolved in 40% β-Cyclodextrin, 50 mg/kg intraperitoneally) or vehicle control (40% β-Cyclodextrin intraperitoneally) 2 hours prior to donor heart procurement. After dissection, the heart was stored at 4° C. with HTK or HTK with VPA for a pre-designated duration. The hearts were then mounted on a Radnoti mouse Langendorff apparatus (ADInstruments inc., Colorado Springs, CO) in constant-pressure mode (˜70 mmHg) with a modified Krebs-Henseleit buffer (KHB; in mM: 118 NaCl, 4.7 KCl, 1.25 CaCl2), 1.66 MgSO4, 24.88 NaHCO3, 1.18 KH2PO4, 5.55 glucose, and 2.0 Na-pyruvate). A balloon was placed in the LV through the left atrium and left ventricular diastolic pressure was set to ˜8 mmHg at initiation. The heart was perfused with modified Krebs-Henseleit buffer for 30 min to stabilize and then hemodynamics measurements were recorded. Myocardial temperature was maintained at 37° C. LabChart software (ADInstruments inc., Colorado Springs, CO) was used to record ventricular function, perfusion pressures, cardiac chamber temperature and myocardial temperature. After perfusing the heart for 60 minutes, the heart was removed from the ex-vivo perfusion apparatus for specimen collection. Tissue was immediately placed in liquid N2 or treated with 4% formalin.

[2] = tested on: pig hearts; experiment: Porcine ex-vivo heart perfusion after cold preservation
Experimental: Heart procurement for both human and pigs were performed as follows. A sternotomy is performed under general anesthesia. The pericardium is then opened to create a pericardial cradle for the heart. Heparin (300U/kg) administered through the right atrium or in a peripheral vein. After waiting 3 minute for adequate anticoagulation from heparin, a 9 Fr antegrade plegia infusion catheter is placed in the ascending aorta. Approximately 1 liter of autologous donor arterial blood is then collected into a collection bottle containing heparin. […] Subsequently, the ascending aorta is cross-clamped distal to the cardioplegia catheter and 1 liter of cold (4° C.) HTK solution is infused into the coronaries at a perfusion pressure of ˜80 mmHg to induce mechanical arrest. After excising the heart completely, it is transported to the back-table for infusion of 2 liters of HTK±VPA solution. After completion, the heart is stored in a solution identical to the perfusate at 4° C. on ice.
Pig hearts underwent ex-vivo perfusion after preservation for 4 or 10 hours. Approval for human heart procurement was obtained from the University of Michigan Institutional Review Board (HUM00131275). Human donor hearts from deceased brain death donors were procured as per standard clinical protocols from the Gift of Life Michigan (GOLM) organ procurement facility. Myocardial biopsies (˜5 mm^3) of LV were biopsied immediately after cardioplegic arrest (0 h) and after 8 hours (8 h) of cold storage in a cooler containing ice. […] Causes of death were stroke (n=4), trauma (n=2), drug overdose (n=1), and cardiac arrest (n=1). Heart tissue were either fixed in formalin or snap frozen in liquid N2 for later analysis.
For ex-vivo pig heart perfusion (FIG. 15), the ascending aorta is connected to the arterial perfusion cannula and the left atrium is closed by suturing shut the pulmonary veins. A pressure monitoring catheter and left atrial infusion catheter were then placed into the left atrial cavity and secured. The Miller conductance catheter was introduced into the left ventricular cavity for measurement of ventricular performance parameters. The Radnoti constant perfusion pressure apparatus (ADInstruments Inc., Colorado Springs, CO) was utilized for ex-vivo large animal heart perfusion. Approximately 1 liter of previously collected autologous blood was added to ˜3.5 liters of Krebs buffer and this was initially infused at 24° C. with gradual warming to 37° C. After air was removed from the perfusion system, the ascending aorta and coronaries were retrograde perfused through the arterial cannula at physiological pressure ˜80 mmHg, leading to cardiac reanimation. The perfusion pressure was kept constant at ˜80 mmHg so LV contraction would need to overcome this afterload for cardiac output. Shockable arrhythmias such as ventricular tachycardia, ventricular fibrillation, supraventricular tachycardia were electrically cardioverted to sinus rhythm by delivery of 10 or 20 joules of energy. Cardiac performance was assessed in “resting” and “working” modes (60, 61). The left atrial pressure in resting mode was typically 0-1 mmHg. To assess cardiac hemodynamics in “working mode”, perfusate was infused into the left atrium at 4-10 mmHg at the 4-hour time point for LV loading and cardiac output assessment. Because cardiac performance was highly impaired as expected at the 10-hour time point, the left atrium was loaded to a pressure of up to 15 mmHg to assess cardiac output. At 1 hour intervals, both arterial perfusate and coronary sinus blood were collected for monitoring and analysis. Oxygen pressure was kept at about pO2 150-200 mmHg while pCO2 was kept at about 35-40 mmHg. Arterial pH was maintained at 7.35-7.40 by buffering with 5% CO2 during gas exchange. The heart was perfused ex vivo for 3 hours and then arrested with 4° C. HTK solution for specimen collection in formalin or snap frozen with liquid N2. The heart was weighed at the time of procurement and at the end of perfusion. […]

[3] = ex vivo perfused hearts compared to HTK alone

## CCCC(CCC)C(=O)O [VPA, 2-Propyl-pentanoic acid]
[1]; HTK±VPA, cold preservation up to 16 hours
  ex vivo contractility: improve
[1]; Irg1−/− hearts, ex vivo perfusion and syngeneic transplant models
  cardioprotective effects of VPA with deficiency in Irg1: reduced
[1]; LysM-Cre hearts, ex vivo perfusion model
  effect of conditional Irg1 deficiency in myeloid cells on VPA's cardioprotective effects on contractility or relaxation: did not impact
[1]; titration 5, 10 and 20 mM in HTK, 16 hours preservation
  VPA concentration with peak cardioprotective effect: 10 mM
[2]
  TnI in arterial perfusate: reduced
  cleaved caspase 3 expression: decreased
  heart weight: no difference
  oxygen consumption: higher
  total Nrf2 protein in cardiac tissue: increased
[2]; 4 and 10 hours of preservation
  NRF2 nuclear translocation: induced
[2]; 4 h and 10 h preservation
  donor heart contractility in working mode: improved
  donor heart relaxation in working mode: improved
[2]; 10 h preservation
  oxidative DNA damage via 8-OHdG staining: greatly reduced
[2]; after 4 h preservation
  improvement of cardiac output (CO) compared with HTK alone: about 25%
[2]; after 10 h of preservation
  aortic pulse pressure magnitude (systolic minus diastolic pressure): greater
  improvement of cardiac output (CO) compared with HTK alone: 100%
  systolic pressure in the left ventricular cavity: higher
[2]; after 10 hours of preservation
  perfusate concentration of IL-1β: reduced
  perfusate concentration of IL-2: reduced
  perfusate concentration of IL-6: reduced
  perfusate concentration of TNF-α: reduced
[2]; after 10 h preservation
  expression of pro-survival protein BCL2: increased
[2]; [3]
  expression of IRG1 transcript: increased
  mRNA abundance of IL1B: decreased
  mRNA abundance of IL6: decreased
  mRNA abundance of TNFA: decreased
[2]; pig hearts preserved for 10 h
  oxygen consumption compared to HTK alone: greater

From US20240341301A1 (The Regents of the University of Michigan, priority 2023, published 2024)
